Reference: ChEMBL document CHEMBL4808171, “Structure-Activity Relationship Study and Biological Evaluation of 2-(Disubstituted phenyl)-indole-5-propanoic Acid Derivatives as GPR40 Full Agonists” (J Med Chem, 2021)
Active and inactive are the calls of the source. The calls are words filed in the database; no cut-off is given here.

What was measured:
[1] = molecular target: T1, Free fatty acid receptor 1 (Homo sapiens, UniProt O14842); assay: Agonist activity at GPR40 (unknown origin) expressed in CHO cells co-expressing luc2P/SRE assessed as induction of DHA-induced firefly luciferase activity incubated for 24 hrs by Bright-Glo based serum response element (SRE) luciferase reporter assay; format: functional, cell-based; conditions: filed as positive allosteric modulator
[2] = Tlast in CD-1 mouse at 30 mg/kg, po measured up to 8 hrs by LC-MS/MS analysis; format: ADME, organism-based; conditions: in vivo
[3] = AUC (0 to t) in CD-1 mouse at 10 mg/kg, po measured up to 8 hrs by LC-MS/MS analysis; format: ADME, organism-based; design: route oral, dose 10 mg/kg, time <=8; conditions: in vivo
[4] = AUC (0 to t) in CD-1 mouse at 30 mg/kg, po measured up to 8 hrs by LC-MS/MS analysis; format: ADME, organism-based; design: route oral, dose 30 mg/kg, time <=8; conditions: in vivo
[5] = molecular target: T1, Free fatty acid receptor 1; assay: Agonist activity at GPR40 (unknown origin) expressed in CHO cells co-expressing luc2P/SRE assessed as induction of TAK875-induced firefly luciferase activity incubated for 24 hrs by Bright-Glo based serum response element (SRE) luciferase reporter assay; format: functional, cell-based; conditions: filed as positive allosteric modulator
[6] = molecular target: T1, Free fatty acid receptor 1; assay: Agonist activity at GPR40 (unknown origin) expressed in CHO cells co-expressing luc2P/CRE (Gs) assessed as firefly luciferase activity at 10 uM incubated for 24 hrs by Bright-Glo based […] luciferase reporter assay; format: functional, cell-based
[7] = molecular target: T1, Free fatty acid receptor 1; assay: Agonist activity at GPR40 (unknown origin) expressed in CHO cells co-expressing luc2P/SRE assessed as firefly luciferase activity at 10 uM incubated for 24 hrs hrs by Bright-Glo based serum response element (SRE) luciferase reporter assay relative to TAK875; format: functional, cell-based; conditions: filed as positive allosteric modulator
[8] = molecular target: T2, Free fatty acid receptor 4 (Homo sapiens, UniProt Q5NUL3); assay: Agonist activity at FFAR4 (unknown origin); format: functional
T2 sequence (Q5NUL3 whole entry): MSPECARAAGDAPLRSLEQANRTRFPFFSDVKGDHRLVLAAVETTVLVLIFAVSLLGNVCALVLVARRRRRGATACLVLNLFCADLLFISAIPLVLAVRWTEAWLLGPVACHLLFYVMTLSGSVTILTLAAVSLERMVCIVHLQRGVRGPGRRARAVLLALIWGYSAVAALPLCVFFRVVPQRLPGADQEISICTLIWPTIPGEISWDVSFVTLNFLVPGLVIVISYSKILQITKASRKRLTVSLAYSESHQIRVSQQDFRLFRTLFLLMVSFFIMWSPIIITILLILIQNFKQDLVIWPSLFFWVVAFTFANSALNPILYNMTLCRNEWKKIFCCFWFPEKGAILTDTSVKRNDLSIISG

[9] = Cmax in CD-1 mouse at 30 mg/kg, po measured up to 8 hrs by LC-MS/MS analysis; format: ADME, organism-based; design: route oral, dose 30 mg/kg, time <=8; conditions: in vivo
[10] = molecular target: T3, Peroxisome proliferator-activated receptor gamma (Homo sapiens, UniProt P37231); assay: Agonist activity at human PPARgamma expressed in CHO cells assessed as increase in receptor transcriptional activity incubated for 24 hrs by dual luciferase reporter gene assay; format: cell-based
T3 sequence (P37231 whole entry): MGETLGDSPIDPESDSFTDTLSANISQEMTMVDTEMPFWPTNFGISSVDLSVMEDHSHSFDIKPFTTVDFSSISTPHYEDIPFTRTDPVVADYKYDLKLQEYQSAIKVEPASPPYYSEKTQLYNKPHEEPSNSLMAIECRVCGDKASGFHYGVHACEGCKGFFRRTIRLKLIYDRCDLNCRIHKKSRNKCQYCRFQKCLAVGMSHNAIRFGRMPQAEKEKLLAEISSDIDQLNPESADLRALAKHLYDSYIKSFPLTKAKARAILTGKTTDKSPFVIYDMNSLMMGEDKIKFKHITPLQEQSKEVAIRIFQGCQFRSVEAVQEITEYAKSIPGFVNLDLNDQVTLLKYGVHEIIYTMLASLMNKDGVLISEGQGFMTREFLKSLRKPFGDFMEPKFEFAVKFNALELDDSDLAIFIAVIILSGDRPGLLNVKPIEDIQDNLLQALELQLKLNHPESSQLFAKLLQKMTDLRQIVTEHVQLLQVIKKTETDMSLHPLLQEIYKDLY

[11] = Tmax in CD-1 mouse at 10 mg/kg, po measured up to 8 hrs by LC-MS/MS analysis; format: ADME, organism-based; conditions: in vivo
[12] = MRTlast in CD-1 mouse at 10 mg/kg, po measured up to 8 hrs by LC-MS/MS analysis; format: ADME, organism-based; conditions: in vivo
[13] = test system: Mus musculus; assay: Antidiabetic activity in db/db mouse assessed as reduction in plasma glucose level at 30 mg/kg, po pretreated 1 hr before glucose challenge measured up to 120 mins by Oral glucose tolerance test; format: functional, organism-based
[14] = test system: Mus musculus; assay: Antidiabetic activity in C57BL/6J mouse assessed as increase in plasma GLP1 level at 30 mg/kg, po measured after 30 mins in presence of KR-62436 by ELISA relative to KR-62436 treated control; format: functional; conditions: 0.5 h
[15] = test system: Mus musculus; assay: Antidiabetic activity in C57BL/6J mouse assessed as increase in plasma GLP1 level at 30 mg/kg, po measured after 30 mins by ELISA relative control; format: functional, organism-based
[16] = molecular target: T4, Peroxisome proliferator-activated receptor gamma (Homo sapiens) (UniProt P37231); assay: Agonist activity at human PPARgamma expressed in CHO cells assessed as increase in receptor transcriptional activity at 1 uM incubated for 24 hrs by dual luciferase reporter gene assay relative to rosiglitazone; format: cell-based
T4 sequence (whole entry): T3 sequence (P37231 whole entry)

[17] = molecular target: Free fatty acid receptor 1 (Mus musculus) (UniProt Q76JU9); assay: Agonist activity at GPR40 in mouse MIN6 cells assessed as fold increase in 17 mM glucose-mediated insulin secretion at 1 to 10 uM incubated for 2 hrs by ELISA relative to control; format: functional, cell-based; conditions: filed as positive allosteric modulator, dose 1-10 µM
Free fatty acid receptor 1 (Mus musculus), sequence (Q76JU9 whole entry): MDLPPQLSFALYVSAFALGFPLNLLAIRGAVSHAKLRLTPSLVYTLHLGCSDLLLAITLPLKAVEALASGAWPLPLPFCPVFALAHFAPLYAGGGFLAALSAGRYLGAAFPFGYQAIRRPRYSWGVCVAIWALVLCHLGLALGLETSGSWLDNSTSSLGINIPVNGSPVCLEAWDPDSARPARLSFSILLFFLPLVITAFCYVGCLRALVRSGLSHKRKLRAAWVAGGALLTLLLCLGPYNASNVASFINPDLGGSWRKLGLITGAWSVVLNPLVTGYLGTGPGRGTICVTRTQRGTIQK

T1 sequence (O14842 whole entry): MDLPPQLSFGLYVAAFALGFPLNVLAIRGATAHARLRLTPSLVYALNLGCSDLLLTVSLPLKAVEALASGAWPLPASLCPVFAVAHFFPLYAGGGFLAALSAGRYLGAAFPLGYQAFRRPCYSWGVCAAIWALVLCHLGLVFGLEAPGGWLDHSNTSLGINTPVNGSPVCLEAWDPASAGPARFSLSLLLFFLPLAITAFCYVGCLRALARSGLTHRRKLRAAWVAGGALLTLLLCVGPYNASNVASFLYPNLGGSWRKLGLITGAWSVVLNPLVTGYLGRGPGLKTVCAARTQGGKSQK

| Activity [1] | Tlast [2] | AUC(0-t) at 8 h [3] | AUC(0-t) at 8 h [4] | Activity [5] | EC50 [6] | Emax [7] | EC50 [8] | Cmax [9] | EC50 ([10]; cho) | Tmax [11] | MRT last at 8 h [12] | Emax [16] | fold change (FC) [17] | EC50 ([10]; read-out: EC50) | Compound | Activity [13] | Activity [14] | Activity [15] |
| --- | --- | --- | --- | --- | --- | --- | --- | --- | --- | --- | --- | --- | --- | --- | --- | --- | --- | --- |
| Active | 8 h | 114000 ng·h/mL | 33600 ng·h/mL | Active | 12.9 µM | 103% | 14.8 µM | 24000 ng/mL | Not Active | 19.8 min | 124 min |  |  |  | Cc1ccc(C)c(-c2cc3cc(CCC(=O)O)ccc3[nH]2)c1 | Active | 163% | Active |
| Active | 8 h | 4860 ng·h/mL | 38700 ng·h/mL | Active | 0.521 µM | 111% | > 25 µM | 28700 ng/mL |  | 33 min | 73.8 min | 32.5% | 1.16 | 56.9 µM | Cc1cc(F)ccc1-c1cc2cc(CCC(=O)O)ccc2[nH]1 |  |  |  |
